# Values joined by “and” are separate entries in the source; they are usually repeats but may differ in a detail not shown here. Identical values can stand only once. “Also recorded” adds a separate entry of the source. Like-named read-outs stand apart in the source and are kept apart here.
# Test: Plasma kinetics in rat following intravenous and oral administration;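 for AUC0-∞: parameter is AUC from zero to infinity in ng·h/mL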
# Format: in vivo, Sprague Dawley rats
# Conditions: male rats
# Experimental: This study determined the intravenous pharmacokinetics and oral bioavailability of compound 1 of the invention (see FIG. 1A, structure no. 1), compound 2 of the invention (see FIG. 1D, structure no. 19) and compound 3 of the invention (see FIG. 1I, structure no. 53) following administration to Sprague Dawley rats at a dose level of 10 mg/kg.
# Six groups of 3 male rats received either a single intravenous or single oral administration of compound 1, 2 or 3 of the invention at a dose level of 10 mg/kg. Blood samples were obtained at various times after dosing. Plasma samples were analysed for unchanged test item using a suitable LC-MS/MS method. Pharmacokinetic parameters were estimated from individual plasma concentrations.
# Eighteen male rats each received either a single intravenous or a single oral administration of either compound 1, 2 or 3 at a dose level of 10 mg/kg. The formulation was orally administered to each animal by gastric gavage and intravenously administered to each animal via a tail vein. The dose was administered at a dose volume of 5 mL/kg. The formulations were administered to each animal according to the details in the following table:
# Blood samples (ca 0.3 mL) were removed from the femoral vein of each animal into tubes containing lithium heparin as anticoagulant.
# Blood samples were collected from 3 rats at the following times after dose administration: • 3, 6, 15, 45 min and 1.5, 2.5, 4, 6, 8, 24 h post dose. Oral Administration
# Blood samples were collected from 3 rats at the following times after dose administration: • 5, 15, 45 min and 1.5, 2.5, 4, 6, 8, 24 h post dose. Processing of Blood Samples
# Pharmacokinetic parameters of compound 1, 2 and 3 were derived by non-compartmental analysis using WinNonLin Pro version 5.0.1 (Pharsight 2005). The following parameters were derived, where appropriate, from the individual plasma concentration versus time profiles:
# • F % The absolute oral bioavailability calculated as [AUC0-t (oral)*Dose(iv)/AUC0-t (iv)*Dose (oral)]*100 based on mean values derived after oral and intravenous administration Consideration was given to the estimation of λz and corresponding t1/2 values. Three or more points are required within the terminal phase for λz and t1/2 to be estimated. The following additional variables were tabulated to aid identification of potentially unreliable estimates of t1/2 and AUC:
# Pharmacokinetic parameters were reported as geometric mean except Tmax which was reported as the median. Geometric coefficient of variation was calculated as: […]
# Actual sampling times were used for all calculations of pharmacokinetic parameters. Plasma concentrations that were below the limit of quantification were taken as zero for the pharmacokinetic analysis.
# [1] = oral 10 mg/kg, individual animals, acetate, 10 mg/kg
smiles,measurement,setting,value
"N=C(N)NN=CC=Cc1cccn1-c1ccccc1Br [Compound 3, [1-(2-bromophenyl)-1H-pyrrol-2-yl-allylideneamino]guanidinium acetate]",AUC(0-inf),"male, Sprague Dawley, rat, plasma, po, 10 mg/kg, oral 10 mg/kg, Geometric mean",837 ng·h/mL
same,AUC(0-t),"male, Sprague Dawley, rat, plasma, po, 10 mg/kg, oral 10 mg/kg, Geometric mean, read-out: AUC0-t",509 ng·h/mL
same,Cmax,"male, Sprague Dawley, rat, plasma, po, 10 mg/kg, oral 10 mg/kg, Geometric mean, read-out: Cmax",108 ng/mL
same,MRT,"male, Sprague Dawley, rat, plasma, po, 10 mg/kg, oral 10 mg/kg, Geometric mean, read-out: MRT",6.83 h
same,half-life,"male, Sprague Dawley, rat, plasma, po, 10 mg/kg, oral 10 mg/kg, Geometric mean, read-out: t1/2 (converted)",3.3 h
same,Tmax,"male, Sprague Dawley, rat, plasma, po, 10 mg/kg, oral 10 mg/kg, Geometric mean, read-out: tmax",4.59 h
same,AUC(0-inf),"male, Sprague Dawley, rat, plasma, po, 10 mg/kg, oral 10 mg/kg, Median",838 ng·h/mL
same,AUC(0-t),"male, Sprague Dawley, rat, plasma, po, 10 mg/kg, oral 10 mg/kg, Median, read-out: AUC0-t",565 ng·h/mL
same,Cmax,"male, Sprague Dawley, rat, plasma, po, 10 mg/kg, oral 10 mg/kg, Median, read-out: Cmax",112 ng/mL
same,MRT,"male, Sprague Dawley, rat, plasma, po, 10 mg/kg, oral 10 mg/kg, Median, read-out: MRT",6.83 h
same,half-life,"male, Sprague Dawley, rat, plasma, po, 10 mg/kg, oral 10 mg/kg, Median, read-out: t1/2 (converted)",3.3 h
same,Tmax,"male, Sprague Dawley, rat, plasma, po, 10 mg/kg, oral 10 mg/kg, Median, read-out: tmax",4.02 h
same,AUC(0-inf),"male, Sprague Dawley, rat, plasma, po, 10 mg/kg, oral 10 mg/kg, individual animals",863 ng·h/mL
same,AUC(0-t),"male, Sprague Dawley, rat, plasma, po, 10 mg/kg, oral 10 mg/kg, individual animals, read-out: AUC0-t",605 ng·h/mL
same,Cmax,"male, Sprague Dawley, rat, plasma, po, 10 mg/kg, oral 10 mg/kg, individual animals, read-out: Cmax",132 ng/mL
same,MRT,"male, Sprague Dawley, rat, plasma, po, 10 mg/kg, oral 10 mg/kg, individual animals, read-out: MRT",6.82 h
same,half-life,"male, Sprague Dawley, rat, plasma, po, 10 mg/kg, oral 10 mg/kg, individual animals, read-out: t1/2 (converted)",3.19 h
same,Tmax,"male, Sprague Dawley, rat, plasma, po, 10 mg/kg, oral 10 mg/kg, individual animals, read-out: tmax",4.02 h
same,Tmax,"male, Sprague Dawley, rat, plasma, po, 10 mg/kg, oral 10 mg/kg, from mean plasma concentrations, read-out: time post dose at which maximum plasma concentration was observed (tmax)",4 h
same,half-life,"male, Sprague Dawley, rat, plasma, po, 10 mg/kg, oral 10 mg/kg, read-out: apparent terminal half-life (converted)",3.3 h
same,concentration at 0.08 h,"male, Sprague Dawley, rat, plasma, po, 10 mg/kg, single oral 10 mg/kg, 0.08 h, individual animals, LLOQ 2.50 (Table X: * 5.0, ** 25, diluted samples), read-out: Sample Concentration in plasma",2.53 ng/mL
same,concentration at 0.08 h,"male, Sprague Dawley, rat, plasma, po, 10 mg/kg, single oral 10 mg/kg, 0.08 h, mean, read-out: Mean Concentration in plasma",2.53 ng/mL
same,concentration at 0.25 h,"male, Sprague Dawley, rat, plasma, po, 10 mg/kg, single oral 10 mg/kg, 0.25 h, mean of 3, read-out: Mean Concentration in plasma",20.5 ng/mL
same,concentration at 0.75 h,"male, Sprague Dawley, rat, plasma, po, 10 mg/kg, single oral 10 mg/kg, 0.75 h, individual animals, read-out: Sample Concentration in plasma",29.1 ng/mL
same,concentration at 0.75 h,"male, Sprague Dawley, rat, plasma, po, 10 mg/kg, single oral 10 mg/kg, 0.75 h, mean of 3, read-out: Mean Concentration in plasma",30.8 ng/mL
same,concentration at 1.5 h,"male, Sprague Dawley, rat, plasma, po, 10 mg/kg, single oral 10 mg/kg, 1.5 h, mean of 3, read-out: Mean Concentration in plasma",39.2 ng/mL
same,concentration at 2.5 h,"male, Sprague Dawley, rat, plasma, po, 10 mg/kg, single oral 10 mg/kg, 2.5 h, mean of 3, read-out: Mean Concentration in plasma",62.7 ng/mL
same,concentration at 4 h,"male, Sprague Dawley, rat, plasma, po, 10 mg/kg, single oral 10 mg/kg, 4 h, individual animals, read-out: Sample Concentration in plasma",112 ng/mL
same,concentration at 4 h,"male, Sprague Dawley, rat, plasma, po, 10 mg/kg, single oral 10 mg/kg, 4 h, mean of 3, read-out: Mean Concentration in plasma",92.5 ng/mL
same,concentration at 6 h,"male, Sprague Dawley, rat, plasma, po, 10 mg/kg, single oral 10 mg/kg, 6 h, individual animals, read-out: Sample Concentration in plasma",70.4 ng/mL
same,concentration at 6 h,"male, Sprague Dawley, rat, plasma, po, 10 mg/kg, single oral 10 mg/kg, 6 h, mean of 3, read-out: Mean Concentration in plasma",80.1 ng/mL
same,concentration at 8 h,"male, Sprague Dawley, rat, plasma, po, 10 mg/kg, single oral 10 mg/kg, 8 h, individual animals, LLOQ 2.50, read-out: Sample Concentration in plasma",50.1 ng/mL
same,concentration at 8 h,"male, Sprague Dawley, rat, plasma, po, 10 mg/kg, single oral 10 mg/kg, 8 h, mean, LLOQ 2.50, read-out: Mean Concentration in plasma",60.8 ng/mL
same,mean absorption time (MAT),oral 10 mg/kg,3.52 h
same,MAT,"oral 10 mg/kg, Arithmetic Mean",3.59 h
same,MAT,"oral 10 mg/kg, Geometric mean",3.52 h
same,MAT,"oral 10 mg/kg, Median",3.59 h
same,AUC0-∞,[1],812 ng·h/mL
same,AUC(0-t),[1],565 ng·h/mL and 386 ng·h/mL
same,Cmax,[1],85.5 ng/mL
same,MAT,[1],2.86 h and 4.32 h
same,MRT,[1],6.84 h
same,Tmax,[1],6.00 h
same,t1/2,[1],3.42 h
same,"maximum observed plasma concentration, mean value","oral 10 mg/kg, at tmax",92.5 ng/mL
same,Sample Concentration in plasma,"single intravenous 10 mg/kg, 0.05 h, individual animals, acetate, 10 mg/kg",2940 ng/mL and 4040 ng/mL
same,Sample Concentration in plasma,"single intravenous 10 mg/kg, 0.1 h, individual animals, acetate, 10 mg/kg",1300 ng/mL and 1030 ng/mL
same,Sample Concentration in plasma,"single intravenous 10 mg/kg, 0.25 h, individual animals, acetate, 10 mg/kg",904 ng/mL and 954 ng/mL
same,Sample Concentration in plasma,"single intravenous 10 mg/kg, 0.75 h, individual animals, acetate, 10 mg/kg",445 ng/mL and 545 ng/mL
same,Sample Concentration in plasma,"single intravenous 10 mg/kg, 1.5 h, individual animals, acetate, 10 mg/kg",327 ng/mL and 403 ng/mL
same,Sample Concentration in plasma,"single intravenous 10 mg/kg, 2.5 h, individual animals, acetate, 10 mg/kg",274 ng/mL and 240 ng/mL
same,Sample Concentration in plasma,"single intravenous 10 mg/kg, 4 h, individual animals, acetate, 10 mg/kg",225 ng/mL and 171 ng/mL
same,Sample Concentration in plasma,"single intravenous 10 mg/kg, 6 h, individual animals, acetate, 10 mg/kg",129 ng/mL and 124 ng/mL
same,Sample Concentration in plasma,"single intravenous 10 mg/kg, 8 h, individual animals, LLOQ 2.50, acetate, 10 mg/kg",<LLOQ and 100 ng/mL
same,Sample Concentration in plasma,"single intravenous 10 mg/kg, 24 h, individual animals, LLOQ 2.50, acetate, 10 mg/kg",<LLOQ and 2.55 ng/mL
same,adverse effects,"single intravenous or oral administration, 10 mg/kg, acetate",No adverse effects; also recorded: No adverse affects
same,Sample Concentration in plasma,"single oral 10 mg/kg, 0.08 h, individual animals, LLOQ 2.50 (Table X: * 5.0, ** 25, diluted samples), acetate, 10 mg/kg",<LLOQ
same,Sample Concentration in plasma,"single oral 10 mg/kg, 0.25 h, individual animals, acetate, 10 mg/kg",14.7 ng/mL and 14.1 ng/mL and 32.8 ng/mL
same,Sample Concentration in plasma,"single oral 10 mg/kg, 0.75 h, individual animals, acetate, 10 mg/kg",26.6 ng/mL and 36.6 ng/mL
same,Sample Concentration in plasma,"single oral 10 mg/kg, 1.5 h, individual animals, acetate, 10 mg/kg",61.4 ng/mL and 19.2 ng/mL and 37.0 ng/mL
same,Sample Concentration in plasma,"single oral 10 mg/kg, 2.5 h, individual animals, acetate, 10 mg/kg",82.5 ng/mL and 37.2 ng/mL and 68.4 ng/mL
same,Sample Concentration in plasma,"single oral 10 mg/kg, 4 h, individual animals, acetate, 10 mg/kg",*33.4 ng/mL and 132 ng/mL
same,Sample Concentration in plasma,"single oral 10 mg/kg, 6 h, individual animals, acetate, 10 mg/kg",85.5 ng/mL and 84.5 ng/mL
same,Sample Concentration in plasma,"single oral 10 mg/kg, 8 h, individual animals, LLOQ 2.50, acetate, 10 mg/kg",76.1 ng/mL and 56.2 ng/mL
same,Sample Concentration in plasma,"single oral 10 mg/kg, 24 h, individual animals, LLOQ 2.50",<LLOQ
same,Mean Concentration in plasma,"single oral 10 mg/kg, 24 h, mean, LLOQ 2.50",<LLOQ

# Reference: patent publication US8058306B2, “Phenyl pyrrole aminoguanidine derivatives” (Action Pharma A/S, priority 2006, dated 2011)
